In patent US8618289B2 (Ambit Biosciences Corporation, priority 2008, dated 2013):

Assays:
RAF kinases [1] = biological target: RAF kinases (Homo sapiens, UniProt P04049); details: read-out: RAF1 Kd; RAF1
RAF kinases [2] = biological target: RAF kinases (Homo sapiens, UniProt P15056); details: read-out: BRAF WT Kd; BRAF WT
RAF kinases [3] = biological target: RAF kinases (Homo sapiens, UniProt P15056, V600E); details: read-out: BRAF V600E Kd; BRAF V600E
[4] = tested on: MEK1 phosphorylation in the A375 human melanoma cell line; test: cells; details: A-375, read-out: pMEK IC50
A375 cells = test: cells; details: Homo sapiens, A-375, read-out: A375 Viability EC50

Sequence of RAF kinases (Homo sapiens, UniProt P15056) (P15056 whole entry): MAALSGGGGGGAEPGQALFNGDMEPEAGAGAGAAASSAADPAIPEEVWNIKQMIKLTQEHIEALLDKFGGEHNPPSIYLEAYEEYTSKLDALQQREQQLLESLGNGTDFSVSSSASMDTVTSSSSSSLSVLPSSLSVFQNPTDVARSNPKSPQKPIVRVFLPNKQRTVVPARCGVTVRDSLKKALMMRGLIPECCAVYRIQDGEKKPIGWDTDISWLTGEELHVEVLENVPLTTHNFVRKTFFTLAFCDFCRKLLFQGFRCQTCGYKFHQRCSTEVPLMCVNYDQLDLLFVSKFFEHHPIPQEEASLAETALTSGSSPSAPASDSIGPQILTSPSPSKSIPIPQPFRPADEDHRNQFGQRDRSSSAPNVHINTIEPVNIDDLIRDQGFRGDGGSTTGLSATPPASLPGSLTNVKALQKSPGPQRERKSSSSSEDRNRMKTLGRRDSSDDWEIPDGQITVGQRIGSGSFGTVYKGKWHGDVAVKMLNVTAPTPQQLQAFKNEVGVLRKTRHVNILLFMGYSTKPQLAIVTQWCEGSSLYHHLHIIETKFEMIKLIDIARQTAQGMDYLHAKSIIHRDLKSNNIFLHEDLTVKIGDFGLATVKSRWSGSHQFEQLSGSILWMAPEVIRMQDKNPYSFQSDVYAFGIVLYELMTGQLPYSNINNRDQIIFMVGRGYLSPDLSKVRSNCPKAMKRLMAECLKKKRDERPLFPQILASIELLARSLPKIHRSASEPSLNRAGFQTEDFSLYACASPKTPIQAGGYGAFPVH
Sequence of RAF kinases (Homo sapiens, UniProt P15056, V600E) (P15056 whole entry V600E): as the sequence (P15056 whole entry) above, with V600E counted along it
Sequence of RAF kinases (Homo sapiens, UniProt P04049) (P04049 whole entry): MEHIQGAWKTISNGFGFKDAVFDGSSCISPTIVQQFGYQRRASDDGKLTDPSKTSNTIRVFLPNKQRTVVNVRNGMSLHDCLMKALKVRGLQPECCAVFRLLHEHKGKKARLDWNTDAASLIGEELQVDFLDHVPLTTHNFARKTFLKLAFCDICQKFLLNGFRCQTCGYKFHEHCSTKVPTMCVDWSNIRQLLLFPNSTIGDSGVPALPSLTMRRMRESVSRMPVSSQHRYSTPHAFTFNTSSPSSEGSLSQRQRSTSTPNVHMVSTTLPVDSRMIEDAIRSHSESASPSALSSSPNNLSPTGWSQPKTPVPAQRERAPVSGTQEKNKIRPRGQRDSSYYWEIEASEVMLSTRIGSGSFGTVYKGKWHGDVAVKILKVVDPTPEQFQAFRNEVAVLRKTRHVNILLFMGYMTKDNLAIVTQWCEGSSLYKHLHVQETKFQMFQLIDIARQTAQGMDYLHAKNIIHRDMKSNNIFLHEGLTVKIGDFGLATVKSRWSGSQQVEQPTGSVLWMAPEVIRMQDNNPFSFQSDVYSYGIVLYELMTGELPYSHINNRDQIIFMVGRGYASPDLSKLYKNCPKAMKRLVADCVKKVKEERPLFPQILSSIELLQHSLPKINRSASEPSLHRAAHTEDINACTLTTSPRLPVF

Row | Kd (RAF kinases [1]) | Kd (RAF kinases [2]) | Kd (RAF kinases [3]) | IC50 [4] | EC50 (A375 cells) | SMILES
1 | > 1 µM | > 1 µM | > 1 µM | < 0.25 µM | < 0.25 µM | COc1cc2ncnc(Oc3ccc(Cl)c(NC(=O)Nc4cc(C(C)(C)C)nn4-c4ccc(C)cc4)c3)c2cc1OC [Ex 298, 1-(3-tert-butyl-1-p-tolyl-1H-pyrazol-5-yl)-3-(2-chloro-5-(6,7-dimethoxyquinazolin-4-yloxy)phenyl)urea]
2 | < 0.25 µM | < 0.25 µM | < 0.25 µM | > 1 µM | > 1 µM | COc1cc2ncnc(Sc3cccc(NC(=O)Nc4cc(C(F)(F)F)no4)c3)c2cc1OC [Ex 382, 1-(3-(6,7-dimethoxyquinazolin-4-ylthio)phenyl)-3-(3-(trifluoromethyl)isoxazol-5-yl)urea]
3 | < 0.25 µM | < 0.25 µM | < 0.25 µM | 0.25 to 0.5 µM | 0.25 to 0.5 µM | CCc1cc(NC(=O)Nc2cccc(Sc3ncnc4cc(OC)c(OC)cc34)c2)n(-c2ccccc2)n1 [Ex 399, 1-(3-(6,7-dimethoxyquinazolin-4-ylthio)phenyl)-3-(3-ethyl-1-phenyl-1H-pyrazol-5-yl)urea]
4 | < 0.25 µM | < 0.25 µM | < 0.25 µM | < 0.25 µM | < 0.25 µM | COc1cc2ncnc(Oc3cccc(NC(=O)Nc4cc(C5(C(F)(F)F)CC5)on4)c3)c2cc1OC [Ex 377, 1-(3-(6,7-dimethoxyquinazolin-4-yloxy)phenyl)-3-(5-(1-(trifluoromethyl)cyclopropyl)isoxazol-3-yl)urea]
5 | < 0.25 µM | < 0.25 µM | < 0.25 µM | 0.5 to 1 µM | 0.25 to 0.5 µM | CCOc1cc2ncnc(Sc3cccc(NC(=O)Nc4cc(C(C)(C)F)no4)c3)c2cc1OC [Ex 389, 1-(3-(7-ethoxy-6-methoxyquinazolin-4-ylthio)phenyl)-3-(3-(2-fluoropropan-2-yl)isoxazol-5-yl)urea]
6 | < 0.25 µM | < 0.25 µM | < 0.25 µM | < 0.25 µM | 0.25 to 0.5 µM | COc1cc2ncnc(Oc3ccc(F)c(NC(=O)Nc4cc(C(C)(C)C)on4)c3)c2cc1OC [Ex 367, 1-(5-tert-butylisoxazol-3-yl)-3-(5-(6,7-dimethoxyquinazolin-4-yloxy)-2-fluorophenyl)urea]
7 | < 0.25 µM | < 0.25 µM | < 0.25 µM | < 0.25 µM | < 0.25 µM | CCOc1cc2c(Oc3cccc(NC(=O)Nc4cc(C(C)(C)F)no4)c3)ncnc2cc1OC [Ex 392, 1-(3-(6-ethoxy-7-methoxyquinazolin-4-yloxy)phenyl)-3-(3-(2-fluoropropan-2-yl)isoxazol-5-yl)urea]

The next lines start with the compound.

Row | SMILES | Kd (RAF kinases [1]) | Kd (RAF kinases [2]) | Kd (RAF kinases [3]) | IC50 [4] | EC50 (A375 cells)
8 | COCCOc1cc2ncnc(Sc3cccc(NC(=O)Nc4cc(C(F)(F)F)nn4C)c3)c2cc1OC [Ex 239, 1-{3-[6-methoxy-7-(2-methoxyethoxy)quinazolin-4-ylthio]phenyl}-3-[1-methyl-3-(trifluoromethyl)-1H-pyrazol-5-yl]urea] | < 0.25 µM | < 0.25 µM | < 0.25 µM | 0.25 to 0.5 µM | > 1 µM
9 | CCOc1cc2c(Oc3cccc(NC(=O)Nc4cc(C(C)(C)C(F)(F)F)on4)c3)ncnc2cc1OC [Ex 260, 1-(3-(6-ethoxy-7-methoxyquinazolin-4-yloxy)phenyl)-3-(5-(1,1,1-trifluoro-2-methylpropan-2-yl)isoxazol-3-yl)urea] | < 0.25 µM | < 0.25 µM | < 0.25 µM | < 0.25 µM | < 0.25 µM
10 | COCCOc1cc2ncnc(Sc3cccc(NC(=O)Nc4cc(C(C)(CF)CF)nn4-c4ccccc4)c3)c2cc1OC [Ex 238, 1-[3-(1,3-difluoro-2-methylpropan-2-yl)-1-phenyl-1H-pyrazol-5-yl]-3-{3-[6-methoxy-7-(2-methoxyethoxy)quinazolin-4-ylthio]phenyl}urea] | > 1 µM | > 1 µM | > 1 µM | < 0.25 µM | > 1 µM
11 | COCCOc1cc2ncnc(Oc3cccc(NC(=O)Nc4cc(C5CC5)no4)c3)c2cc1OC [Ex 214, 1-(3-cyclopropylisoxazol-5-yl)-3-(3-(6-methoxy-7-(2-methoxyethoxy)quinazolin-4-yloxy)phenyl)urea] | < 0.25 µM | < 0.25 µM | < 0.25 µM | > 1 µM | > 1 µM
12 | COc1cc2c(Oc3cccc(NC(=O)Nc4ccc(OC)c(C(F)(F)F)c4)c3)ncnc2cc1OCCN1CCOCC1 [Ex 250, 1-(4-methoxy-3-(trifluoromethyl)phenyl)-3-(3-(6-methoxy-7-(2-morpholinoethoxy)quinazolin-4-yloxy)phenyl)urea] | < 0.25 µM | < 0.25 µM | < 0.25 µM | 0.25 to 0.5 µM | > 1 µM
13 | COc1cc2ncnc(Oc3cccc(NC(=O)Nc4cc(C(C)(C)C)on4)c3C)c2cc1OC [Ex290, 1-(5-tert-butylisoxazol-3-yl)-3-(3-(6,7-dimethoxyquinazolin-4-yloxy)-2-methylphenyl)urea] | < 0.25 µM | < 0.25 µM | < 0.25 µM | < 0.25 µM | 0.25 to 0.5 µM
14 | COc1cc2ncnc(Oc3cccc(NC(=O)Nc4cc(C(C)(C)F)no4)c3F)c2cc1OC [Ex 296, 1-(3-(6,7-dimethoxyquinazolin-4-yloxy)-2-fluorophenyl)-3-(3-(2-fluoropropan-2-yl)isoxazol-5-yl)urea] | < 0.25 µM | < 0.25 µM | < 0.25 µM | > 1 µM | > 1 µM
15 | COCCOc1cc2ncnc(Oc3cccc(NC(=O)Nc4cc(C5CCCC5)on4)c3)c2cc1OC [Ex 219, 1-(5-cyclopentylisoxazol-3-yl)-3-(3-(6-methoxy-7-(2-methoxyethoxy)quinazolin-4-yloxy)phenyl)urea] | < 0.25 µM | < 0.25 µM | < 0.25 µM | < 0.25 µM | 0.25 to 0.5 µM
16 | COc1cc2c(Oc3cccc(NC(=O)Nc4cc(C(C)(C)C(F)(F)F)on4)c3)ncnc2cc1O [Ex 263, 1-(3-(7-hydroxy-6-methoxyquinazolin-4-yloxy)phenyl)-3-(5-(1,1,1-trifluoro-2-methylpropan-2-yl)isoxazol-3-yl)urea] | < 0.25 µM | < 0.25 µM | < 0.25 µM | < 0.25 µM | 0.5 to 1 µM
17 | COc1cc2ncnc(Sc3cccc(NC(=O)Nc4cc(C(C)(C)C)nn4-c4ccc(C)cc4C)c3)c2cc1OC [Ex 284, 1-(3-tert-butyl-1-(2,4-dimethylphenyl)-1H-pyrazol-5-yl)-3-(3-(6,7-dimethoxyquinazolin-4-ylthio)phenyl)urea] | > 1 µM | > 1 µM | > 1 µM | < 0.25 µM | > 1 µM
18 | COc1cc2ncnc(Oc3cc(NC(=O)Nc4cc(C(C)(C)C)on4)c(F)cc3F)c2cc1OC [Ex 270, 1-(5-tert-butylisoxazol-3-yl)-3-(5-(6,7-dimethoxyquinazolin-4-yloxy)-2,4-difluorophenyl)urea] | < 0.25 µM | < 0.25 µM | < 0.25 µM | < 0.25 µM | < 0.25 µM
19 | COc1cc2ncnc(Oc3cc(NC(=O)Nc4cc(C(C)(CF)CF)on4)ccc3F)c2cc1OC [Ex 294, 1-(5-(1,3-difluoro-2-methylpropan-2-yl)isoxazol-3-yl)-3-(3-(6,7-dimethoxyquinazolin-4-yloxy)-4-fluorophenyl)urea] | < 0.25 µM | < 0.25 µM | < 0.25 µM | < 0.25 µM | 
